PubChem BioAssay AID248 (DTP/NCI, 2004)
Toxic doses and inconclusive results are not listed. Rule as the data show it: active = T/C of 150% or more; inactive = T/C below 125%.

Tested on: L1210 leukemia ip in BDF1 mice, survival T/C
Assay: NCI In Vivo Anticancer Drug Screen. Data for tumor model L1210 Leukemia (intraperitoneal) in B6D2F1 (BDF1) mice
Details: endpoint: mean survival time, higher = longer survival
Method in brief: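 In this screen, tumor-bearing mice given compound are compared to those given vehicle, and their survival values are reported as a treated-to-control quotient.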

[1] = dose: 100.0 mg/kg/injection, schedule: Q01DX001 (ip), vehicle: saline
[2] = dose: 100.0 mg/kg/injection, schedule: Q04DX003 (ip), vehicle: saline with Tween-80
[3] = dose: 200.0 mg/kg/injection, schedule: Q01DX001 (ip), vehicle: saline
[4] = dose: 400.0 mg/kg/injection, schedule: Q01DX001 (ip), vehicle: saline
[5] = dose: 25.0 mg/kg/injection, schedule: Q01DX009 (ip), vehicle: water
[6] = dose: 50.0 mg/kg/injection, schedule: Q01DX009 (ip), vehicle: water
[7] = dose: 100.0 mg/kg/injection, schedule: Q01DX009 (ip), vehicle: water
[8] = dose: 100.0 mg/kg/injection, schedule: Q01DX001 (ip), vehicle: carboxymethylcellulose (CMC)
[9] = dose: 200.0 mg/kg/injection, schedule: Q01DX001 (ip), vehicle: carboxymethylcellulose (CMC)
[10] = dose: 400.0 mg/kg/injection, schedule: Q01DX001 (ip), vehicle: carboxymethylcellulose (CMC)
[11] = dose: 100.0 mg/kg/injection, schedule: Q01DX009 (ip), vehicle: Klucel (hydroxypropylcellulose) (HPC)
[12] = dose: 200.0 mg/kg/injection, schedule: Q01DX009 (ip), vehicle: Klucel (hydroxypropylcellulose) (HPC)
[13] = dose: 400.0 mg/kg/injection, schedule: Q01DX009 (ip), vehicle: Klucel (hydroxypropylcellulose) (HPC)
[14] = dose: 100.0 mg/kg/injection, schedule: Q01DX001 (ip), vehicle: other
[15] = dose: 200.0 mg/kg/injection, schedule: Q01DX001 (ip), vehicle: other
[16] = dose: 400.0 mg/kg/injection, schedule: Q01DX001 (ip), vehicle: other

Measured: T/C

CN(C)N=Nc1ccc(-c2nnco2)cc1
inactive: dose: 100.0 mg/kg/injection, schedule: Q04DX002 (ip), vehicle: saline with Tween-80 110 % of control | dose: 200.0 mg/kg/injection, schedule: Q04DX002 (ip), vehicle: saline with Tween-80 106 % of control | dose: 400.0 mg/kg/injection, schedule: Q04DX002 (ip), vehicle: saline with Tween-80 119 % of control

COC1CC(OS(=O)(=O)c2ccc(C)cc2)C(O)C(C)O1 (stereo not drawn)
inactive: [1] 103 % of control | dose: 100.0 mg/kg/injection, schedule: Q01DX009 (ip), vehicle: saline with Tween-80 96 % of control | [2] 100 % of control | [3] 94 % of control | dose: 200.0 mg/kg/injection, schedule: Q01DX009 (ip), vehicle: saline with Tween-80 94 % of control | dose: 200.0 mg/kg/injection, schedule: Q04DX003 (ip), vehicle: saline with Tween-80 100 % of control | [4] 100 % of control | dose: 400.0 mg/kg/injection, schedule: Q01DX009 (ip), vehicle: saline with Tween-80 96 % of control | dose: 400.0 mg/kg/injection, schedule: Q04DX003 (ip), vehicle: saline with Tween-80 97 % of control

CCCCCC1OC1C/C=C/CCCCCCCC(=O)OCC(COC(=O)CCCCCCC/C=C/CC1OC1CCCCC)OC(=O)CCCCCCC/C=C/CC1OC1CCCCC (stereo not drawn)
inactive: [1] 109 % of control | [3] 95 % of control | [4] 97 % of control

Nc1cnnc(N)c1Cl
inactive: dose: 5.0 mg/kg/injection, schedule: Q01DX001 (ip), vehicle: saline 102 % of control | dose: 10.0 mg/kg/injection, schedule: Q01DX001 (ip), vehicle: saline 113 % of control | dose: 20.0 mg/kg/injection, schedule: Q01DX001 (ip), vehicle: saline 104 % of control | dose: 40.0 mg/kg/injection, schedule: Q01DX001 (ip), vehicle: saline 95 % of control

NNC(=O)c1c[nH]c2ccccc2c1=O
inactive: dose: 12.5 mg/kg/injection, schedule: Q01DX009 (ip), vehicle: Klucel (hydroxypropylcellulose) (HPC) 95 % of control | dose: 25.0 mg/kg/injection, schedule: Q01DX009 (ip), vehicle: Klucel (hydroxypropylcellulose) (HPC) 90 % of control | dose: 50.0 mg/kg/injection, schedule: Q01DX009 (ip), vehicle: Klucel (hydroxypropylcellulose) (HPC) 94 % of control

CC(C)=CCC1=CC(=O)c2ccccc2C1=O
inactive: dose: 12.0 mg/kg/injection, schedule: Q01DX009 (ip), vehicle: water 97 % of control | [5] 102 % of control | dose: 50.0 mg/kg/injection, schedule: Q01DX001 (ip), vehicle: water 96 % of control | [6] 96 % of control | dose: 100.0 mg/kg/injection, schedule: Q01DX001 (ip), vehicle: water 102 % of control | [7] 95 % of control | dose: 200.0 mg/kg/injection, schedule: Q01DX001 (ip), vehicle: water 105 % of control | dose: 400.0 mg/kg/injection, schedule: Q01DX001 (ip), vehicle: water 92 % of control

COc1ccc(C(C)S(=O)(=O)c2ccc(C)cc2)cc1OC (stereo not drawn)
inactive: [8] 97 % of control | [9] 97 % of control | [10] 94 % of control

Cc1cc(=O)n2c3c(cc(C#N)cc13)OC2
inactive: [11] 90 % of control | dose: 100.0 mg/kg/injection, schedule: Q04DX002 (ip), vehicle: Klucel (hydroxypropylcellulose) (HPC) 96 % of control | [12] 98 % of control | [13] 95 % of control | dose: 400.0 mg/kg/injection, schedule: Q04DX002 (ip), vehicle: Klucel (hydroxypropylcellulose) (HPC) 89 % of control

CC(=O)C(Br)CC(C)C (stereo not drawn)
inactive: dose: 75.0 mg/kg/injection, schedule: Q01DX001 (ip), vehicle: saline 102 % of control | dose: 150.0 mg/kg/injection, schedule: Q01DX001 (ip), vehicle: saline 105 % of control | dose: 300.0 mg/kg/injection, schedule: Q01DX001 (ip), vehicle: saline 100 % of control

O=NN(CCCl)C(=O)Nc1ccccc1Cl
inactive: [8] 87 % of control

CCCCCCCCCCCCSC(SCCCCCCCCCCCC)SCCCCCCCCCCCC
inactive: [14] 95 % of control | [15] 106 % of control | [16] 95 % of control

O=C(O)C1CO1 (stereo not drawn)
inactive: dose: 100.0 mg/kg/injection, schedule: Q01DX001 (ip), vehicle: acetone 102 % of control | dose: 200.0 mg/kg/injection, schedule: Q01DX001 (ip), vehicle: acetone 98 % of control | dose: 400.0 mg/kg/injection, schedule: Q01DX001 (ip), vehicle: acetone 101 % of control

CC(=O)Nc1cc(Cl)cc2c1-c1ccc(Cl)cc1C2N(C)C (stereo not drawn)
inactive: dose: 50.0 mg/kg/injection, schedule: Q01DX001 (ip), vehicle: carboxymethylcellulose (CMC) 98 % of control | [8] 90 % of control | [9] 106 % of control | [10] 98 % of control

CCN(CC)CCCNC=O
inactive: dose: 100.0 mg/kg/injection, schedule: Q01DX009 (ip), vehicle: saline 94 % of control | dose: 100.0 mg/kg/injection, schedule: Q04DX003 (ip), vehicle: saline 111 % of control | dose: 200.0 mg/kg/injection, schedule: Q01DX009 (ip), vehicle: saline 94 % of control | dose: 200.0 mg/kg/injection, schedule: Q04DX003 (ip), vehicle: saline 102 % of control | dose: 400.0 mg/kg/injection, schedule: Q01DX009 (ip), vehicle: saline 94 % of control | dose: 400.0 mg/kg/injection, schedule: Q04DX003 (ip), vehicle: saline 108 % of control

Nc1ccc(O)c2ncccc12
inactive: dose: 6.25 mg/kg/injection, schedule: Q01DX009 (ip), vehicle: saline 95 % of control | dose: 12.5 mg/kg/injection, schedule: Q01DX009 (ip), vehicle: saline 92 % of control | dose: 50.0 mg/kg/injection, schedule: Q01DX001 (ip), vehicle: saline 98 % of control

O=C(COc1ccc(Cl)c(Cl)c1)Nc1ccc[n+](Cc2ccccc2S(=O)(=O)F)c1
inactive: [2] 96 % of control

CCOC(=O)C1=NN(c2ccccc2)C(=O)C1N=Nc1ccc(S(=O)(=O)Nc2ccccn2)cc1 (stereo not drawn)
inactive: [1] 102 % of control | [3] 96 % of control | [4] 93 % of control

Clc1ccc(-c2cc(=[N+]3CCC4(CC3)SSC3(CC[N+](=c5cc(-c6ccc(Cl)cc6)ss5)CC3)S4)ss2)cc1 (stereo not drawn)
inactive: [5] 90 % of control | [6] 90 % of control | [7] 88 % of control | dose: 400.0 mg/kg/injection, schedule: Q01DX009 (ip), vehicle: water 87 % of control

CCCCOC(=O)c1nc[nH]c1[N+](=O)[O-]
inactive: [14] 93 % of control | [15] 101 % of control | [16] 101 % of control

CCOC(=O)/C=C/Cc1cc(-c2ccccc2)ccc1O
inactive: dose: 100.0 mg/kg/injection, schedule: Q04DX003 (ip), vehicle: acetone 98 % of control | dose: 200.0 mg/kg/injection, schedule: Q04DX003 (ip), vehicle: acetone 98 % of control | dose: 400.0 mg/kg/injection, schedule: Q04DX003 (ip), vehicle: acetone 103 % of control

CCCc1c(O)ccc(C)c1C
inactive: [14] 91 % of control | [15] 103 % of control

O=C(O)CC1CCCCC1c1ccccc1 (stereo not drawn)
inactive: [11] 98 % of control | dose: 100.0 mg/kg/injection, schedule: Q04DX003 (ip), vehicle: Klucel (hydroxypropylcellulose) (HPC) 96 % of control | [12] 100 % of control | dose: 200.0 mg/kg/injection, schedule: Q04DX003 (ip), vehicle: Klucel (hydroxypropylcellulose) (HPC) 106 % of control | [13] 87 % of control | dose: 400.0 mg/kg/injection, schedule: Q04DX003 (ip), vehicle: Klucel (hydroxypropylcellulose) (HPC) 95 % of control
